Data: patent publication US4201725A, “Secondary amines” (priority 1974, dated 1980)

Legend:
[1] = in vivo; conditions: mouse, po
[2] = tested on: neuroleptic-induced catatonia; experiment: Inhibition of neuroleptic (prochlorperazine)-induced catatonia (preventive); type: in vivo, rat (male, OFA strain); conditions: for activity relative to amantadine, neuroleptic-induced catatonia: times more active than amantadine
Experimental: The blocking of dopaminergic receptors by neuroleptics in the extra-pyramidal system induces catatonia in the rat. Catatonia is differentiated from sedative properties by means of the test used hereabove for reserpine-induced catatonia. The same system of scoring was also employed in the present case.
An oral dose of the compound to be studied in aqueous solution was administered to batches of 10 male rats of the OFA strain weighing about 150 to 200 g.
Three hours after the injection of this latter compound, catatonia was measured. An identical trial was also carried out with control animals which received prochlorperazine but none of the compounds under study.
The scoring system used was that given hereabove for Table I.

[3] = tested on: reserpine-induced catatonia; experiment: Inhibition of reserpine-induced catatonia (preventive, oral compound 30 min before reserpine); type: in vivo, rat (male, OFA strain)
Experimental: After sufficient doses of reserpine have been administered to the rat, a series of symptoms occur, more particularly ptosis, catatonia and a drop in central temperature. These symptoms are caused by the depletion of the intragranular reserve pool of biogenetic amines at the synaptic terminals.
An oral dose of the compound to be studied in aqueous solution was administered to batches of 10 male rats of the OFA strain weighing about 150 to 200 g. Thirty minutes later a dose of 5 mg/kg of reserpine was given by intraperitoneal route. Three hours after the injection of reserpine, the animals were suspended by the four paws to a horizontally stretched wire fixed at 15 cm from the ground. The catatonia animals were those which maintained the position so given for at least 30 seconds. […] The maximum score was therefore 10 per batch. An identical trial was undertaken with control animals which received reserpine but none of the compounds being studied.

CCCC(N)(CC)CCC [Compound 2, 1-Ethyl-1-n-propyl-n-butylamine]
selectivity ratio [1]: 30
Inhibition of the neuroleptic-induced catatonia ([2]; 5 mg/kg oral): 1 (represents 20 to 30% inhibition of catatonia in comparison with the controls)

CCCC(N)(CC)CC(C)C (centres unmarked) [Compound 3, 1-Ethyl-1-isobutyl-n-butylamine]
Inhibition of the neuroleptic-induced catatonia ([2]; 20 mg/kg oral): 3 (represents 70 to 80% inhibition of catatonia in comparison with the controls)

CCCC(N)(CCC)CC(C)C [Compound 5, 1-n-Propyl-1-isobutyl-n-butylamine]
activity relative to amantadine, neuroleptic-induced catatonia [2]: five times more active
Inhibition of reserpine-induced catatonia ([3]; 20 mg/kg oral): 2 (represents 50% inhibition of catatonia in comparison with the controls)

CCCC(C)(N)CC(C)CC (centres unmarked) [Compound 6, 1,3-Dimethyl-1-n-propyl-n-pentylamine]
selectivity ratio [1]: > 25

CCCCC(C)(N)CC(C)C (centres unmarked) [Compound 8, 1-Methyl-1-isobutyl-n-pentylamine]
activity relative to amantadine, neuroleptic-induced catatonia [2]: twice as active

CCCCCC(C)(N)CCC (centres unmarked) [Compound 9, 1-Methyl-1-n-propyl-n-hexylamine]
selectivity ratio [1]: 87

CCCCC(C)CC(C)(C)N (centres unmarked) [Compound 13, 1,1,3-Trimethyl-n-heptylamine]
Inhibition of the neuroleptic-induced catatonia ([2]; 50 mg/kg oral): 1 (represents 20 to 30% inhibition of catatonia in comparison with the controls)
Inhibition of reserpine-induced catatonia ([3]; 25 mg/kg oral): 1 (represents 20 to 30% inhibition of catatonia in comparison with the controls)

CCCC(N)(CCC)CC(C)C [Compound 19, 1-n-Propyl-1-isobutyl-n-butylamine]
Inhibition of the neuroleptic-induced catatonia ([2]; 6 mg/kg oral): 3 (represents 70 to 80% inhibition of catatonia in comparison with the controls)
Inhibition of reserpine-induced catatonia ([3]; 6 mg/kg oral): 3 (represents 70 to 80% inhibition of catatonia in comparison with the controls)

CCCC(CCC)(CCC)N(C)C [Compound 28, N,N-Dimethyl-1,1-di-n-propyl-n-butylamine]
Inhibition of the neuroleptic-induced catatonia ([2]; 3 mg/kg oral): 2 (represents 50% inhibition of catatonia in comparison with the controls)
Inhibition of the neuroleptic-induced catatonia ([2]; 6 mg/kg oral): 4 (represents 100% inhibition of catatonia in comparison with the controls)
Inhibition of reserpine-induced catatonia ([3]; 6 mg/kg oral): 4 (represents 100% inhibition of catatonia in comparison with the controls)

CCCC(CCC)(CCC)N1CCC1 [Compound 29, N,N-Trimethylene-1,1-di-n-propyl-n-butylamine]
selectivity ratio [1]: 10.8
Inhibition of the neuroleptic-induced catatonia ([2]; 3 mg/kg oral): 2 (represents 50% inhibition of catatonia in comparison with the controls)
Inhibition of the neuroleptic-induced catatonia ([2]; 6 mg/kg oral): 4 (represents 100% inhibition of catatonia in comparison with the controls)
Inhibition of reserpine-induced catatonia ([3]; 3 mg/kg oral): 3 (represents 70 to 80% inhibition of catatonia in comparison with the controls)
Inhibition of reserpine-induced catatonia ([3]; 6 mg/kg oral): 4 (represents 100% inhibition of catatonia in comparison with the controls)

CCCC(CCC)(CC(C)C)NC [Compound 31, N-Methyl-1-n-propyl-1-isobutyl-n-butylamine]
Inhibition of the neuroleptic-induced catatonia ([2]; 6.5 mg/kg oral): 4 (represents 100% inhibition of catatonia in comparison with the controls)
Inhibition of reserpine-induced catatonia ([3]; 6.5 mg/kg oral): 3 (represents 70 to 80% inhibition of catatonia in comparison with the controls)

CCCC(CCC)(CCC)NCC [Compound 33, N-Ethyl-1,1-di-n-propyl-n-butylamine]
selectivity ratio [1]: 16.5
Inhibition of the neuroleptic-induced catatonia ([2]; 6 mg/kg oral): 4 (represents 100% inhibition of catatonia in comparison with the controls)
Inhibition of reserpine-induced catatonia ([3]; 6 mg/kg oral): 2 (represents 50% inhibition of catatonia in comparison with the controls)

CCCC(CCC)(CCC)NC(C)C [Compound 34, N-Isopropyl-1,1-di-n-propyl-n-butylamine]
selectivity ratio [1]: 21.6
Inhibition of the neuroleptic-induced catatonia ([2]; 3 mg/kg oral): 2 (represents 50% inhibition of catatonia in comparison with the controls)
Inhibition of the neuroleptic-induced catatonia ([2]; 6.5 mg/kg oral): 4 (represents 100% inhibition of catatonia in comparison with the controls)
Inhibition of reserpine-induced catatonia ([3]; 6.5 mg/kg oral): 2 (represents 50% inhibition of catatonia in comparison with the controls)
Inhibition of reserpine-induced catatonia ([3]; 13 mg/kg oral): 4 (represents 100% inhibition of catatonia in comparison with the controls)

C=CCNC(CCC)(CCC)CCC [Compound 35, N-Allyl-1,1-di-n-propyl-n-butylamine]
selectivity ratio [1]: 21
Inhibition of the neuroleptic-induced catatonia ([2]; 6 mg/kg oral): 4 (represents 100% inhibition of catatonia in comparison with the controls)
Inhibition of reserpine-induced catatonia ([3]; 6 mg/kg oral): 2 (represents 50% inhibition of catatonia in comparison with the controls)

CCCC(CCC)(CC(C)C)N(C)C [Compound 37, N,N-Dimethyl-1-n-propyl-1-isobutyl-n-butylamine]
Inhibition of the neuroleptic-induced catatonia ([2]; 6.5 mg/kg oral): 2 (represents 50% inhibition of catatonia in comparison with the controls)
Inhibition of reserpine-induced catatonia ([3]; 6.5 mg/kg oral): 3 (represents 70 to 80% inhibition of catatonia in comparison with the controls)

CCCC(CCC)(CCC)N(C)CC [Compound 38, N-Methyl-N-ethyl-1,1-di-n-propyl-n-butylamine]
Inhibition of the neuroleptic-induced catatonia ([2]; 6.5 mg/kg oral): 2 (represents 50% inhibition of catatonia in comparison with the controls)
Inhibition of reserpine-induced catatonia ([3]; 6.5 mg/kg oral): 2 (represents 50% inhibition of catatonia in comparison with the controls)

C#CCN(CC#C)C(CCC)(CCC)CCC [Compound 39, N,N-Dipropargyl-1,1-di-n-propyl-n-butylamine]
Inhibition of reserpine-induced catatonia ([3]; 15 mg/kg oral): 2 (represents 50% inhibition of catatonia in comparison with the controls)

CCCC(CCC)(CCC)N1CC1 [Compound 40, N,N-Ethylene-1,1-di-n-propyl-n-butylamine]
selectivity ratio [1]: > 25
Inhibition of the neuroleptic-induced catatonia ([2]; 6 mg/kg oral): 1 (represents 20 to 30% inhibition of catatonia in comparison with the controls)
Inhibition of the neuroleptic-induced catatonia ([2]; 12 mg/kg oral): 3 (represents 70 to 80% inhibition of catatonia in comparison with the controls)
Inhibition of reserpine-induced catatonia ([3]; 6 mg/kg oral): 2 (represents 50% inhibition of catatonia in comparison with the controls)

C=NC(CCC)(CCC)CCC [Compound 41, N-Methylene-1,1-di-n-propyl-n-butylamine]
selectivity ratio [1]: 27
Inhibition of the neuroleptic-induced catatonia ([2]; 5.5 mg/kg oral): 3 (represents 70 to 80% inhibition of catatonia in comparison with the controls)
Inhibition of reserpine-induced catatonia ([3]; 5.5 mg/kg oral): 4 (represents 100% inhibition of catatonia in comparison with the controls)

CC=NC(CCC)(CCC)CCC [Compound 42, N-Ethylidene-1,1-di-n-propyl-n-butylamine]
selectivity ratio [1]: 20
Inhibition of the neuroleptic-induced catatonia ([2]; 6 mg/kg oral): 2 (represents 50% inhibition of catatonia in comparison with the controls)
Inhibition of reserpine-induced catatonia ([3]; 6 mg/kg oral): 4 (represents 100% inhibition of catatonia in comparison with the controls)

CCCC(CCC)(CCC)NCCO [Compound 43, N-(2-Hydroxyethyl)-1,1-di-n-propyl-n-butylamine]
selectivity ratio [1]: 23
Inhibition of the neuroleptic-induced catatonia ([2]; 6.5 mg/kg oral): 1 (represents 20 to 30% inhibition of catatonia in comparison with the controls)
Inhibition of reserpine-induced catatonia ([3]; 13 mg/kg oral): 3 (represents 70 to 80% inhibition of catatonia in comparison with the controls)

CCCC(CCC)(CCC)N(CCO)CCO [Compound 44, N,N-bis-(2-Hydroxyethyl)-1,1-di-n-propyl-n-butylamine]
Inhibition of the neuroleptic-induced catatonia ([2]; 15 mg/kg oral): 1 (represents 20 to 30% inhibition of catatonia in comparison with the controls)
Inhibition of reserpine-induced catatonia ([3]; 15 mg/kg oral): 1 (represents 20 to 30% inhibition of catatonia in comparison with the controls)

CCCC(CCC)(CCC)NCCCO [Compound 45, N-(3-Hydroxy-n-propyl)-1,1-di-n-propyl-n-butylamine]
Inhibition of the neuroleptic-induced catatonia ([2]; 7 mg/kg oral): 2 (represents 50% inhibition of catatonia in comparison with the controls)
Inhibition of reserpine-induced catatonia ([3]; 14 mg/kg oral): 2 (represents 50% inhibition of catatonia in comparison with the controls)

CCCC(CCC)(CCC)N1CCOCC1 [Compound 46, N,N-(3-Oxapentamethylene)-1,1-di-n-propyl-n-butylamine]
selectivity ratio [1]: 31
Inhibition of the neuroleptic-induced catatonia ([2]; 8 mg/kg oral): 2 (represents 50% inhibition of catatonia in comparison with the controls)
Inhibition of reserpine-induced catatonia ([3]; 8 mg/kg oral): 1 (represents 20 to 30% inhibition of catatonia in comparison with the controls)

CCCNC(CCC)(CCC)CCC [Compound 47, N-n-propyl-1,1-di-n-propyl-n-butylamine]
Inhibition of the neuroleptic-induced catatonia ([2]; 6.5 mg/kg oral): 2 (represents 50% inhibition of catatonia in comparison with the controls)
